Numbers after ± are expanded uncertainties.
Legend:
[1] = wn = mass fraction of the nth substance listed; settings: 298.15 K, 101 kPa, Liquid; for viscosity: Capillary tube (Ostwald / Ubbelohde) method; for speed of sound: Linear variable-path acoustic interferometer; for mass density: Vibrating tube method
[2] = refractive index (Na D-line) (dimensionless); wn = mass fraction of the nth substance listed; settings: 298.15 K, 101 kPa, Liquid, Standard Abbe refractometry

Work on `[Ba+2].[Cl-].[Cl-]` [barium chloride] + O yielded a viscosity ([1]; w1 = 0.01) of 0.909 ± 0.008 mPa·s, a viscosity ([1]; w1 = 0.03) of 0.915 ± 0.008 mPa·s and a viscosity ([1]; w1 = 0.05) of 0.921 ± 0.008 mPa·s. It also gave a speed of sound ([1]; w1 = 0.01) of 1516.7 ± 1.6 m/s, a speed of sound ([1]; w1 = 0.03) of 1521.4 ± 1.6 m/s and a speed of sound ([1]; w1 = 0.05) of 1525.3 ± 1.6 m/s. For the same compound, the mass density ([1]; w1 = 0.01) was 997.56 ± 0.04 kg/m3, the mass density ([1]; w1 = 0.03) was 998.66 ± 0.04 kg/m3 and the mass density ([1]; w1 = 0.05) was 999.74 ± 0.05 kg/m3. The refractive index ([2]; w1 = 0.01) was 1.333 ± 0.0008, the refractive index ([2]; w1 = 0.03) was 1.3337 ± 0.0008 and the refractive index ([2]; w1 = 0.05) was 1.3345 ± 0.0008.
